SMILES strings stand for the structures.

Assay [1] deals with T1, mOR-I7 (Mus musculus, UniProt Q9QWU6).
T1 construct: expressed in transfected cells; host or cells: HEK 293T
T1 sequence (Q9QWU6 1-327): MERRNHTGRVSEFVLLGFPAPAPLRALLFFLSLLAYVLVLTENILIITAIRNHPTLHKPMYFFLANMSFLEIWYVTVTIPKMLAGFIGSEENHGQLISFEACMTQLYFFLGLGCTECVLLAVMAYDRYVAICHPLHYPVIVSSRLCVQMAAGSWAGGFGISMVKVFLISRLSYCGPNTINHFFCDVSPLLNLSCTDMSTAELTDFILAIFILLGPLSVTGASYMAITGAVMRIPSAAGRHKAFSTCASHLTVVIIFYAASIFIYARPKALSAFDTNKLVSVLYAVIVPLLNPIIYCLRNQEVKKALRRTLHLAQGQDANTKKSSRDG
As to the kind of experiment: Novel olfactory functional assay (CCBSA), microplate calcium flux (Fluo4, FDSS) on HEK 293T overexpressing mOR-I7. In kind it is cell-based. The following applies: for hit / potential ligand of mOR-I7 in screening of 30 odorants: carrier fraction 4 (bOBP and BSA) incubated with 16 μl of 1M odorant, ratio mOR-I7 on Wt, standardized to 1 mM ATP. The procedure: A solution of BP including SA, OBP and/or olfactory mucus (see concentration in the text) was incubated in the presence of odorant in a sealed flask for 16 hours at 4° C. (FIG. 3A). Such incubated-BP solution was then used as tested complex on olfactory receptor-expressing cells. Prior to incubation with such complex, cells were incubated for 1 hour with 4 μM Fluo4-AM (Molecular Probe) in the presence of 1 mM probenecid, and then rinsed twice with Fluo4-AM free HBSS buffer. After injection of odorant-BP complex on OR expressing cells, calcium flux was followed by measuring fluorescence at 520 nm ([…]) on FDSS, a plate reader from Hamamatsu Photonics K.K. (Japan) at 25° C.
In an attempt to be closer to physiological process of olfaction and thereof to increase specificity and sensitivity of the cell-based assay described above, a novel olfactory functional assay was developed. Most of the time, mammalian smells volatile odorant molecules. However in the cell-based assay described above as in most cell-based assays, odorant molecules were injected into aqueous buffer. Such injection may lead to formation of micelles that can alter efficacy and specificity of ligands. Therefore a cell-based assay was developed focusing an a better solubilization of odorants. In summary, in a sealed flask, bovine olfactory mucus was incubated in the presence of an odorant (FIG. 3A). It was hereby tested if an odorant would be trapped and solubilized in that fluid. Thereafter, such solubilized odorant was injected onto cultured-cells overexpressing an olfactory receptor. Activation of this receptor could then be followed by conventional assay including fluorescent (FIGS. 3 B and C) and luminescent calcium assays.
For this novel assay, mOR-I7 activation was assessed by octanal. A constant volume of olfactory mucus was incubated in the presence of increasing amount of octanal ranging from 0 to 16 μl of a solution of 1M octanal. After 16 hours incubation at 4° C., bovine olfactory mucus was injected on HEK 293T overexpressing mOR-I7. Calcium flux was followed with Fluo4 on FDSS, a plate reader from Hamamatsu Photonics K.K. (Japan).
Capacity of fraction 4 to fulfil the role of odorant solubilizator was assessed in the newly proposed assay. Screening of 30 odorant molecules (FIG. 5A) was performed on HEK 293T wild type (FIG. 5C) or overexpressing mOR-I7 (FIG. 5B). Fraction 4 was incubated overnight at 4° C. […] These odorants led to at least one fold more activation of HEK 293T overexpressing mOR-I7 than the wild type counterpart. They can be classified into two groups. One group (FIG. 5 E (a) to (e)) gathers molecules that fit the olfactophore 1 depicted in FIG. 5 E (j). They are schematically made of 2 electronegative poles distanced by 6 carbons. They all contain a 6-8 carbon chain ended by an electronegative group as depicted by olfactophore 2 represented in FIG. 5 E (k).
However this fraction 4 contained two major proteins, bOBP and BSA. Thus the results of said Example could in this approach not rule out any implication of BSA into fraction 4 properties. Therefore the capacity of BSA to solubilize and thereof to enhance the efficacy of odorants in the novel cell based olfactory functional assay as described by the present invention has been tested. To be as close as possible to BSA concentration observed in fraction 4. BSA concentration was set up at 5×10^−6 M for the following experiments (marked by an arrow on FIG. 6 G). Fraction 4 and a solution of fatty acid-free BSA were incubated at 4° C. for 16 hours in the presence of increasing volume of 1M octanal. So-incubated solutions were then applied onto HEK 293T wt or overexpressing mOR-I7. Calcium-flux was followed on a plate reader (Hamamatsu Photonics K.K., Japan) with fluo4 as fluorescent dye (FIG. 6 A to F). […] Such phenomenon is usually observed in such fluorescence assay when increasing ligand concentrations are injected. […]

Assay [2] addresses T1, mOR-I7. As to the kind of experiment: cAMP level immunoassay (TROPIX) in the novel assay on HEK 293T overexpressing mOR-I7. In kind it is cell-based. The following applies: BSA solution incubated with 16 μl of 1 M odorant; 20 minutes incubation. The procedure: Similarly to the first step of the fluorescence-based functional assay described above, BP solutions including SA, OBP and/or olfactory mucus (see concentration in the text) were incubated in the presence of odorant in a sealed flask for 16 hours at 4° C. (FIG. 3A). Such odorant-BP complexes were then applied to cultured-cell for 20 minutes at 37° C. cAMP level was then measured using the Tropix kit according to the manufacturer procedures (Applied Biosystem).
As depicted in FIG. 1, binding of odorant molecule to olfactory receptor triggers a cascade of molecular events. In the most commonly accepted pathway, the first second messenger is cAMP synthesized by adenylate cyclase type III. Therefore, a mean to test olfactory receptor activation is to assess variation of cellular cAMP pool after olfactory receptor activation. It is noteworthy that such assay could be performed in parallel to calcium flux assay described above to validate hits obtained during a screening.
Specificity of the novel cell based olfactory functional assay according to the present invention was tested following mOR-I7 activation after injection of these three odorants and two non related odorant, vanilline and piperonyl isobutyrate. Olfactory receptor activation was detected by cellular cAMP pool immunoassay. A solution of BSA was incubated overnight at 4° C.
As discussed above (FIG. 1), activation of olfactory receptor can also be followed through cAMP synthesis. […] Results are expressed as percent of response observed after incubation with 100 μM forskolin, an activator of adenylate cyclases. […] Scheme of the odorant molecules are depicted in FIG. 7E.

The mark [3] stands for this setting: fraction 4 or BSA solution incubated with increasing volume of 1M octanal.

As for `CCCCCCCC=O` [octanal], the “hits / potential ligands of mOR-I7 through the 4 screenings” value at mOR-I7 [1] (BSA as carrier, calcium flux and cAMP screenings together) is on record as “hits”. The “ligands of mOR-I7 in two independent calcium flux screenings of 30 odorants” value on mOR-I7 [1] (BSA as carrier, standardized to 100 μM ATP) is on record as “consistent”. For the same compound, at mOR-I7 [1] (bovine olfactory mucus incubated with 0 to 16 μl of 1M octanal, 16 hours 4° C.), the “fluorescence intensity (calcium flux)” value was “proportional to the volume of odorant”. On mOR-I7 [1], the “hit / potential ligand of mOR-I7 in screening of 30 odorants” value was “potential ligands of mOR-I7”. Further, the “hit / potential ligand of mOR-I7 in screening of 30 odorants” value at mOR-I7 [1] (listed as 1-octanal) is “hits”. The “calcium flux in HEK 293T overexpressing mOR-I7” value at mOR-I7 [1] (fraction 4 or BSA solution (5×10^−6 M) incubated with increasing volume of 1M octanal, kinetics over 300 seconds) is reported as “calcium flux was detected”. On mOR-I7 [1] (setting [3]), the “dependence of fluorescence intensity on amount of odorant” value is on record as “proportional to the amount of odorant” and the “time required to reach maximum fluorescence” value was “decreased when odorant volume increased”. Also, the “mOR-I7 activation by cellular cAMP pool” value on mOR-I7 [2] was “mOR-I7 ligands”.

The record behind these values is patent US20090136968A1, “Novel in vitro methods for studying receptors recognizing volatile compounds” (Chemcom S. A., priority 2005, published 2009).
